Legend:
Type in all cases: functional
Mus musculus [1] = experiment: CNS activity in po dosed mouse by inclined screen test
Mus musculus [2] = experiment: CNS activity in po dosed mouse assessed as antifighting activity by foot shock test
Mus musculus [3] = experiment: CNS activity in po dosed mouse assessed as antagonism against pentylenetetrazole-induced response

Structure (SMILES)	ED50 (Mus musculus [1])	ED50 (Mus musculus [2])	ED50 (Mus musculus [3])
COC(=O)c1nnc2n1-c1ccc(Cl)cc1C(c1ccccc1)=NC2	40 mg/kg	5 mg/kg	0.9 mg/kg
[O-][N+]1=C(c2ccccc2)c2cc(Cl)ccc2-n2c(nnc2C(O)CO)C1 (configuration not stated)	> 400 mg/kg	> 100 mg/kg	620 mg/kg
OCC(O)c1nnc2n1-c1ccc(Cl)cc1C(c1ccccc1)=NC2 (configuration not stated)	100 mg/kg	20 mg/kg	3.8 mg/kg
OCC(O)c1nnc2n1-c1ccc(Cl)cc1C(c1ccccc1F)=NC2 (configuration not stated)	200 mg/kg	5 mg/kg	1.5 mg/kg
C=Cc1nnc2n1-c1ccc(Cl)cc1C(c1ccccc1Cl)=NC2	150 mg/kg	6.25 mg/kg	4.2 mg/kg
C=Cc1nnc2n1-c1ccc(Cl)cc1C(c1ccccc1F)=NC2	150 mg/kg	2.5 mg/kg	1.3 mg/kg
CCOC(=O)NN(/C=C/c1nnc2n1-c1ccc(Cl)cc1C(c1ccccc1Cl)=NC2)C(=O)OCC	> 400 mg/kg	> 100 mg/kg	> 800 mg/kg
NNC(=O)c1nnc2n1-c1ccc(Cl)cc1C(c1ccccc1)=NC2	500 mg/kg	50 mg/kg	2.8 mg/kg
CN(C)CCNC(=O)c1nnc2n1-c1ccc(Cl)cc1C(c1ccccc1)=NC2	300 mg/kg	100 mg/kg	50 mg/kg
Cc1nnc2n1-c1ccc(Cl)cc1C(c1ccccc1)=[N+]([O-])C2	> 400 mg/kg	100 mg/kg	3.35 mg/kg
Cc1nnc2n1-c1ccc(Cl)cc1C(c1ccccc1)=NC2 [ALPRAZOLAM]	2 mg/kg	2.5 mg/kg	0.3 mg/kg
CNC1=Nc2ccc(Cl)cc2C(c2ccccc2)=[N+]([O-])C1 [CHLORDIAZEPOXIDE]	100 mg/kg	40 mg/kg	8 mg/kg
CN1C(=O)CN=C(c2ccccc2)c2cc(Cl)ccc21 [DIAZEPAM]	25 mg/kg	10 mg/kg	1.4 mg/kg
Clc1ccc2c(c1)C(c1ccccc1)=NCc1nncn1-2 [ESTAZOLAM]	> 400 mg/kg	0.5 mg/kg	1.1 mg/kg

— ChEMBL document CHEMBL3272162, “Quinazolines and 1,4-benzodiazepines. 81. s-Triazolo[4,3-a][1,4]benzodiazepines by oxidative cyclization of hydrazones” (1977)
